Measured values from PMC8373216, “Development and Preclinical Evaluation of New Inhaled Lipoglycopeptides for the Treatment of Persistent Pulmonary Methicillin-Resistant Staphylococcus aureus Infections” (Antimicrobial Agents and Chemotherapy, 2021).
In brackets after ≈: the same amount, converted by molar mass. Where two headings read alike, the source gives them in different places.

How the values were obtained:
[1] = test system: MRSA ATCC BAA 1556 (USA300); assay: In-house broth microdilution MIC screening; type: cell-based, Staphylococcus aureus; conditions: Staphylococcus aureus; broth microdilution; read-out: MIC Value, MRSA ATCC BAA 1556
[2] = Single-dose nebulized nose-only inhalation PK in healthy rats; type: in vivo, rat; conditions: male, Sprague Dawley, rat, in vivo; for Kp / Lung AUC0-∞ / Lung Cmax / Lung t1/2 / Plasma Cmax: inhaled or intranasal
Protocol: Rats were acclimated in the study facility for approximately 1 week prior to study start. Ten or eleven rats per cohort were loaded into the chamber at the time of dosing. […] An additional airflow set to 6 liters/min was admixed with the nebulizer output to further direct the test articles to the animals. […] The remaining port on the chamber was fit with an aerosol sampling filter for dose determination over a 5 min sampling period. The average dose delivered to the nose of each animal was calculated using an algorithm that was previously described ([49]). […] Animals were euthanized for collection of whole lungs and plasma at time points ranging from immediate postdose (IPD; approximately 30 min after dosing for nebulization) to 168 h postdose (7 days). Drugs were extracted from tissues using customized protein precipitation methods with an appropriate internal standard for each compound and transferred for analysis by LC-MS/MS (Sciex API4500 or API6500+ mass spectrometer [Sciex, Framingham, MA]). GraphPad Prism (La Jolla, CA) was used for statistical analyses and data plotting. […] The data were applied to a noncompartmental analysis after extravascular dosing input and fit to a linear up/log down model. Statistical analysis of in vitro intracellular and biofilm activity was based on a two-way ANOVA with a Bonferroni post test. In vivo statistical analysis was based on the Kolmogorov-Smirnov test.

MSSA ATCC 29213 = assay: In-house broth microdilution MIC screening; type: cell-based; conditions: Staphylococcus aureus; broth microdilution; read-out: MIC Value, MSSA ATCC 29213
[3] = type: physicochemical; conditions: pH 8
Protocol: 40 to the primary metabolite.
41 percent degradation is defined as follows:
[LLLLPPLL ] + [MMPPPPDDMM DDMMDDPPPP ]
45 Enzymes studied include :
108 Table S1: Enzyme hydrolysis of RV62 and RV94 was measured as a function of time in PBS (pH 8) at 37
109 °C. Control samples in the absence of enzyme were included as […]. Samples were analyzed
110 by HPLC detecting the parent RV derivative (RV62 or RV94).
RV Percent RV derivative remaining in HPLC chromatograph, % […]

| SMILES | MIC [1] [µg/mL] | Pulmonary dose [2] [mg/kg] | Time to full conversion to hydrolysis product in the lung [2] [h] | Drug lung level at 120 h [2] [%] | Primary hydrolysis byproduct lung level at 120 h [2] [%] | Kp [2] | Lung AUC0-∞ [2] [µg·h/g] | Lung Cmax [2] [µg/g] | Lung t1/2 [2] [h] | Plasma Cmax [2] [ng/mL] | MIC (MSSA ATCC 29213) [µg/mL] | Percent RV derivative remaining in HPLC chromatograph ([3]; 0 h) [%] | Percent RV derivative remaining in HPLC chromatograph ([3]; 0.5 h) [%] | Percent RV derivative remaining in HPLC chromatograph ([3]; 1 h) [%] | Percent RV derivative remaining in HPLC chromatograph ([3]; 2 h) [%] | Lung retention of primary hydrolysis by-product [2] |
| --- | --- | --- | --- | --- | --- | --- | --- | --- | --- | --- | --- | --- | --- | --- | --- | --- |
| CCCCCCCCCCCCCC(=O)OCCNC1(C)CC(OC2C(Oc3c4cc5cc3Oc3ccc(cc3Cl)C(O)C3NC(=O)C(NC(=O)C5NC(=O)C(CC(N)=O)NC(=O)C(NC(=O)C(CC(C)C)NC)C(O)c5ccc(c(Cl)c5)O4)c4ccc(O)c(c4)-c4c(O)cc(O)cc4C(C(=O)O)NC3=O)OC(CO)C(O)C2O)OC(C)C1O (centres unmarked) [RV88] | 0.125 (≈ 0.0734 µM) | 0.12 | ≤ 24 | 1.5 | 71 | 1350 | 360 | 26 | 21 | 20 | 0.125 (≈ 0.0734 µM) |  |  |  |  |  |
| CCCCCCCCCCCC(=O)NCCNC1(C)CC(OC2C(Oc3c4cc5cc3Oc3ccc(cc3Cl)C(O)C3NC(=O)C(NC(=O)C5NC(=O)C(CC(N)=O)NC(=O)C(NC(=O)C(CC(C)C)NC)C(O)c5ccc(c(Cl)c5)O4)c4ccc(O)c(c4)-c4c(O)cc(O)cc4C(C(=O)O)NC3=O)OC(CO)C(O)C2O)OC(C)C1O (centres unmarked) [RV62] | 0.016 (≈ 0.00955 µM) | 0.15 | ≤ 24 | 0.1 | 107 | 1550 | 317 | 30 | 11 | 20 | 0.016 (≈ 0.00955 µM) | 97.14 | 97.14 | 97.38 | 97.07 |  |
| CNC(CC(C)C)C(=O)NC1C(=O)NC(CC(N)=O)C(=O)NC2C(=O)NC3C(=O)NC(C(=O)NC(C(=O)O)c4cc(O)cc(O)c4-c4cc3ccc4O)C(O)c3ccc(c(Cl)c3)Oc3cc2cc(c3OC2OC(CO)C(O)C(O)C2OC2CC(C)(NCCO)C(O)C(C)O2)Oc2ccc(cc2Cl)C1O (centres unmarked) [RV80] | 2 (≈ 1.34 µM) |  |  |  |  |  |  |  |  |  | 1.5 (≈ 1 µM) |  |  |  |  | sustained in the lung throughout the course of the 120 h experiments |
| CNC(CC(C)C)C(=O)NC1C(=O)NC(CC(N)=O)C(=O)NC2C(=O)NC3C(=O)NC(C(=O)NC(C(=O)O)c4cc(O)cc(O)c4-c4cc3ccc4O)C(O)c3ccc(c(Cl)c3)Oc3cc2cc(c3OC2OC(CO)C(O)C(O)C2OC2CC(C)(NCCN)C(O)C(C)O2)Oc2ccc(cc2Cl)C1O (centres unmarked) [RV82] | 2 (≈ 1.34 µM) |  |  |  |  |  |  |  |  |  | 2 (≈ 1.34 µM) |  |  |  |  | sustained in the lung throughout the course of the 120 h experiments |
